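A five-concentration, 48-hour dose response in 96-well plates underlies each endpoint, interpolated linearly between surrounding concentrations. At the TGI there is no net growth.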
How the values were obtained:
Test in all cases: inhibition of tumour cell growth, NCI panel, 48 h
HS 578T breast = test system: HS 578T breast
HOP-92 NSCLC = test system: HOP-92 NSCLC
TK-10 renal = test system: TK-10 renal
HOP-62 NSCLC = test system: HOP-62 NSCLC
LOX IMVI melanoma = test system: LOX IMVI melanoma
786-0 renal = test system: 786-0 renal
K-562 leukemia = test system: K-562 leukemia
EKVX NSCLC = test system: EKVX NSCLC
SNB-75 CNS = test system: SNB-75 CNS
MALME-3M melanoma = test system: MALME-3M melanoma
UO-31 renal = test system: UO-31 renal
A498 renal = test system: A498 renal
T-47D breast = test system: T-47D breast
A549 NSCLC = test system: A549 NSCLC
CAKI-1 renal = test system: CAKI-1 renal
HCC-2998 colon = test system: HCC-2998 colon
SK-MEL-2 melanoma = test system: SK-MEL-2 melanoma
SNB-19 CNS = test system: SNB-19 CNS
NCI-H23 lung = test system: NCI-H23 lung
SK-MEL-28 melanoma = test system: SK-MEL-28 melanoma
SK-OV-3 ovarian = test system: SK-OV-3 ovarian
SF-295 CNS = test system: SF-295 CNS
CCRF-CEM leukemia = test system: CCRF-CEM leukemia
NCI/ADR-RES ovarian = test system: NCI/ADR-RES ovarian
HCT-15 colon = test system: HCT-15 colon
MDA-MB-435 = test system: MDA-MB-435
HCT-116 colon = test system: HCT-116 colon
HT29 colon = test system: HT29 colon
IGROV1 ovarian = test system: IGROV1 ovarian
RPMI-8226 leukemia = test system: RPMI-8226 leukemia
KM12 colon = test system: KM12 colon
DU-145 prostate = test system: DU-145 prostate
BT-549 breast = test system: BT-549 breast
NCI-H460 lung = test system: NCI-H460 lung
UACC-257 melanoma = test system: UACC-257 melanoma
SK-MEL-5 melanoma = test system: SK-MEL-5 melanoma
NCI-H226 lung = test system: NCI-H226 lung
MDA-N = test system: MDA-N
SF-268 CNS = test system: SF-268 CNS
NCI-H522 lung = test system: NCI-H522 lung
SF-539 CNS = test system: SF-539 CNS
MDA-MB-231 breast = test system: MDA-MB-231 breast
RXF 393 renal = test system: RXF 393 renal
OVCAR-5 ovarian = test system: OVCAR-5 ovarian
OVCAR-4 ovarian = test system: OVCAR-4 ovarian
SN12C renal = test system: SN12C renal
U251 CNS = test system: U251 CNS
HL-60(TB) leukemia = test system: HL-60(TB) leukemia
SW-620 colon = test system: SW-620 colon
COLO 205 colon = test system: COLO 205 colon
OVCAR-3 ovarian = test system: OVCAR-3 ovarian
MCF7 breast = test system: MCF7 breast
OVCAR-8 ovarian = test system: OVCAR-8 ovarian
PC-3 prostate = test system: PC-3 prostate
ACHN renal = test system: ACHN renal
UACC-62 melanoma = test system: UACC-62 melanoma
M14 melanoma = test system: M14 melanoma
MOLT-4 leukemia = test system: MOLT-4 leukemia

Work on `O=[N+]([O-])/C=C/c1c(Cl)cccc1Cl` yielded a TGI (HS 578T breast) greater than 62.9 µM, a TGI (HOP-92 NSCLC) of 12.2 µM and a TGI (TK-10 renal) of 8.25 µM. The TGI (HOP-62 NSCLC) was 13 µM, the TGI (LOX IMVI melanoma) was 3.16 µM and the TGI (786-0 renal) was 1.52 µM. The TGI (K-562 leukemia) was 8.61 µM, the TGI (EKVX NSCLC) was 16.9 µM and the TGI (SNB-75 CNS) was 32.4 µM. For the same compound, the TGI (MALME-3M melanoma) was 9.81 µM, the TGI (UO-31 renal) was 13.3 µM and the TGI (A498 renal) was 30 µM. The TGI (T-47D breast) was 9.39 µM, the TGI (A549 NSCLC) was 22.6 µM and the TGI (CAKI-1 renal) was 7.86 µM. It also gave a TGI (HCC-2998 colon) of 8.34 µM, a TGI (SK-MEL-2 melanoma) of 14 µM and a TGI (SNB-19 CNS) of 12.1 µM. For the same compound, the TGI (NCI-H23 lung) was 16.8 µM, the TGI (SK-MEL-28 melanoma) was 10.9 µM and the TGI (SK-OV-3 ovarian) was 35.5 µM. For the same compound, the TGI (SF-295 CNS) was 14.5 µM, the TGI (CCRF-CEM leukemia) was greater than 18.2 µM and the TGI (NCI/ADR-RES ovarian) was 12.5 µM. It also gave a TGI (HCT-15 colon) of 5.04 µM, a TGI (MDA-MB-435) of 4.62 µM and a TGI (HCT-116 colon) of 14 µM. It also gave a TGI (HT29 colon) of 26 µM, a TGI (IGROV1 ovarian) of 10.3 µM and a TGI (RPMI-8226 leukemia) of 0.514 µM. The TGI (KM12 colon) was 5.28 µM, the TGI (DU-145 prostate) was 20.6 µM and the TGI (BT-549 breast) was 4.96 µM. The TGI (NCI-H460 lung) was 21 µM, the TGI (UACC-257 melanoma) was 10.2 µM and the TGI (SK-MEL-5 melanoma) was 8.78 µM. It also gave a TGI (NCI-H226 lung) of 50.6 µM, a TGI (MDA-N) of 6.85 µM and a TGI (SF-268 CNS) of 28.2 µM. It also gave a TGI (NCI-H522 lung) of 5.95 µM, a TGI (SF-539 CNS) of 5.12 µM and a TGI (MDA-MB-231 breast) of 4.26 µM. For the same compound, the TGI (RXF 393 renal) was greater than 21.8 µM, the TGI (OVCAR-5 ovarian) was 16.2 µM and the TGI (OVCAR-4 ovarian) was 11.4 µM. For the same compound, the TGI (SN12C renal) was 5.65 µM, the TGI (U251 CNS) was 9.27 µM and the TGI (HL-60(TB) leukemia) was greater than 100 µM. For the same compound, the TGI (SW-620 colon) was 2.18 µM, the TGI (COLO 205 colon) was 1.76 µM and the TGI (OVCAR-3 ovarian) was 3.28 µM. It also gave a TGI (MCF7 breast) of 3.29 µM, a TGI (OVCAR-8 ovarian) of 4.13 µM and a TGI (PC-3 prostate) of 5.58 µM. It also gave a TGI (ACHN renal) of 7.49 µM, a TGI (UACC-62 melanoma) of 8.14 µM and a TGI (M14 melanoma) of 4.87 µM.

`CSC(SC)=C(C#N)C(=O)Nc1cccc(Cl)c1` was tested, and the TGI (HS 578T breast) was greater than 100 µM, the TGI (HOP-92 NSCLC) was 55.6 µM and the TGI (TK-10 renal) was greater than 100 µM. It also gave a TGI (HOP-62 NSCLC) greater than 100 µM, a TGI (LOX IMVI melanoma) greater than 100 µM and a TGI (786-0 renal) greater than 100 µM. The TGI (K-562 leukemia) was greater than 100 µM, the TGI (EKVX NSCLC) was greater than 100 µM and the TGI (SNB-75 CNS) was greater than 100 µM. The TGI (MALME-3M melanoma) was greater than 100 µM, the TGI (A498 renal) was greater than 100 µM and the TGI (A549 NSCLC) was greater than 100 µM. It also gave a TGI (CAKI-1 renal) greater than 100 µM, a TGI (HCC-2998 colon) greater than 100 µM and a TGI (SK-MEL-2 melanoma) greater than 100 µM. It also gave a TGI (SNB-19 CNS) greater than 100 µM, a TGI (SK-MEL-28 melanoma) greater than 100 µM and a TGI (SK-OV-3 ovarian) greater than 100 µM. For the same compound, the TGI (SF-295 CNS) was greater than 100 µM, the TGI (CCRF-CEM leukemia) was greater than 100 µM and the TGI (NCI/ADR-RES ovarian) was greater than 100 µM. For the same compound, the TGI (HCT-15 colon) was greater than 100 µM, the TGI (MDA-MB-435) was greater than 100 µM and the TGI (HCT-116 colon) was greater than 100 µM. For the same compound, the TGI (HT29 colon) was greater than 100 µM, the TGI (IGROV1 ovarian) was greater than 100 µM and the TGI (KM12 colon) was greater than 100 µM. For the same compound, the TGI (BT-549 breast) was greater than 100 µM, the TGI (NCI-H460 lung) was greater than 100 µM and the TGI (UACC-257 melanoma) was greater than 100 µM. It also gave a TGI (SK-MEL-5 melanoma) of 40.7 µM, a TGI (NCI-H226 lung) greater than 100 µM and a TGI (MDA-N) greater than 100 µM. It also gave a TGI (SF-268 CNS) greater than 100 µM, a TGI (NCI-H522 lung) of 43.8 µM and a TGI (SF-539 CNS) greater than 100 µM. It also gave a TGI (MDA-MB-231 breast) greater than 100 µM, a TGI (RXF 393 renal) greater than 100 µM and a TGI (OVCAR-5 ovarian) greater than 100 µM. For the same compound, the TGI (OVCAR-4 ovarian) was greater than 100 µM, the TGI (MOLT-4 leukemia) was 87.2 µM and the TGI (SN12C renal) was greater than 100 µM. For the same compound, the TGI (U251 CNS) was greater than 100 µM, the TGI (HL-60(TB) leukemia) was 35.2 µM and the TGI (SW-620 colon) was greater than 100 µM. It also gave a TGI (COLO 205 colon) greater than 100 µM, a TGI (MCF7 breast) greater than 100 µM and a TGI (OVCAR-8 ovarian) greater than 100 µM. For the same compound, the TGI (PC-3 prostate) was greater than 100 µM, the TGI (ACHN renal) was greater than 100 µM and the TGI (UACC-62 melanoma) was greater than 100 µM. It also gave a TGI (M14 melanoma) greater than 100 µM.

From PubChem BioAssay (NCI)
